Experimental data taken from ChEMBL document CHEMBL1909046, “DrugMatrix in vitro pharmacology data”.

Legend:
[1] = DRUGMATRIX: ATPase, Na+/K+ enzyme inhibition (substrate: ATP); assay type: tissue-based, Sus scrofa, Heart; settings: Not Active = under 50% inhibition at 10 µM
[2] = DRUGMATRIX: Calcium Channel Type L, Dihydropyridine radioligand binding (ligand: [3H] Nitrendipine); assay type: cell membranes, Rattus norvegicus, Wistar, Cerebral cortex, Membrane; settings: Not Active = under 50% inhibition at 10 µM
[3] = DRUGMATRIX: Phosphodiesterase PDE3 enzyme inhibition (substrate: [3H]cAMP + cAMP); assay type: tissue-based, Homo sapiens; settings: platelet; Not Active = under 50% inhibition at 10 µM
[4] = molecular target: T1, Vasoactive intestinal polypeptide receptor 1 (Homo sapiens, UniProt P32241); assay type: cell membranes, Membrane; settings: ht-29; also: in other assays of this panel Not Active means under 50% inhibition at 10 µM
T1 sequence (P32241 whole entry): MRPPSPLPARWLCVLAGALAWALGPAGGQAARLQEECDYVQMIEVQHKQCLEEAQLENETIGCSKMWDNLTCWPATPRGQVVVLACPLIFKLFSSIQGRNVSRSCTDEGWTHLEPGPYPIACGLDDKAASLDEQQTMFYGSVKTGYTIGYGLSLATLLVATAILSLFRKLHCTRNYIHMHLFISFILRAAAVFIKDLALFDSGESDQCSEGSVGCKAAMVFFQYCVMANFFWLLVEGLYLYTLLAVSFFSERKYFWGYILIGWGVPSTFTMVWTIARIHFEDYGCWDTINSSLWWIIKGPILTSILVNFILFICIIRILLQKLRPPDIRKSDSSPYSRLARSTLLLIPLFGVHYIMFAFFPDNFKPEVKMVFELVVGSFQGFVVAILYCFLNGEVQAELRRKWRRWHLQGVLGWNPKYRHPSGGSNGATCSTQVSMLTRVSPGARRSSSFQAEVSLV

Cannabinoid receptor 1 = Cannabinoid receptor 1 (Homo sapiens, UniProt P21554); assay type: cell membranes, Chem-1, Membrane; settings: chem-1; also: in other assays of this panel Not Active means under 50% inhibition at 10 µM
Chain of Cannabinoid receptor 1 (P21554 whole entry): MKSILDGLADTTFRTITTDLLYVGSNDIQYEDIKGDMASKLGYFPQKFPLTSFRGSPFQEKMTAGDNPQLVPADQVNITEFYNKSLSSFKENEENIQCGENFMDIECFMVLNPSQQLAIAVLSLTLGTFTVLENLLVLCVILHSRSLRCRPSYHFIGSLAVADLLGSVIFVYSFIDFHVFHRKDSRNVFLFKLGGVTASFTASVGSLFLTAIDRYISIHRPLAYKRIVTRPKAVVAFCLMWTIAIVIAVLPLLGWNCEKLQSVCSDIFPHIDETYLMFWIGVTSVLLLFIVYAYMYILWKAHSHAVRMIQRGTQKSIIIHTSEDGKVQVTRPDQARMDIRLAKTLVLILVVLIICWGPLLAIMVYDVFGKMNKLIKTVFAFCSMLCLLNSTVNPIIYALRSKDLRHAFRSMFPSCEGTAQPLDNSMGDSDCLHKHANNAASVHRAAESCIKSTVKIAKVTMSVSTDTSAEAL

[5] = DRUGMATRIX: Atrial Natriuretic Factor (ANF) radioligand binding (ligand: [125I] ANF (rat)); assay type: cell membranes, Cavia porcellus, Dunkin-Hartley, Adrenal gland, Membrane; settings: Not Active = under 50% inhibition at 10 µM
Cytochrome P450 2E1 = Cytochrome P450 2E1 (Homo sapiens, UniProt P05181); settings: bti-tn-5b1-4; also: in other assays of this panel Not Active means under 50% inhibition at 10 µM
Chain of Cytochrome P450 2E1 (P05181 whole entry): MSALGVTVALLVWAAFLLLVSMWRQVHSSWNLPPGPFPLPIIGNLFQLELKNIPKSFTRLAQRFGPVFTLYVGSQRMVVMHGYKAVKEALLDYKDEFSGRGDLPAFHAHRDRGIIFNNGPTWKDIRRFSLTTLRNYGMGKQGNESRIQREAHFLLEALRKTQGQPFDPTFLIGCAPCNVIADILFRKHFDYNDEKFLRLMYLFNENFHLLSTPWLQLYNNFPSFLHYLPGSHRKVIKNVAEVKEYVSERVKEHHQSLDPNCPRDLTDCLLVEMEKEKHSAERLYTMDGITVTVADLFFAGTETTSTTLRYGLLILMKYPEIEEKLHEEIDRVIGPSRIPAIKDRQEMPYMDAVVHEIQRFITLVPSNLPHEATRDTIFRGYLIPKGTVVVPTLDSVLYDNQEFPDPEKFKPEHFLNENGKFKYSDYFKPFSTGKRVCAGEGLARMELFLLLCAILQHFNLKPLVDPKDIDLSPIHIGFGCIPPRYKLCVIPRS

Acetylcholinesterase = Acetylcholinesterase (Homo sapiens, UniProt P22303); experiment: DRUGMATRIX: Acetylcholinesterase enzyme inhibition (substrate: acetylthiocholine); assay type: cell-based, HEK293; settings: hek293; Not Active = under 50% inhibition at 10 µM
Chain of Acetylcholinesterase (P22303 whole entry): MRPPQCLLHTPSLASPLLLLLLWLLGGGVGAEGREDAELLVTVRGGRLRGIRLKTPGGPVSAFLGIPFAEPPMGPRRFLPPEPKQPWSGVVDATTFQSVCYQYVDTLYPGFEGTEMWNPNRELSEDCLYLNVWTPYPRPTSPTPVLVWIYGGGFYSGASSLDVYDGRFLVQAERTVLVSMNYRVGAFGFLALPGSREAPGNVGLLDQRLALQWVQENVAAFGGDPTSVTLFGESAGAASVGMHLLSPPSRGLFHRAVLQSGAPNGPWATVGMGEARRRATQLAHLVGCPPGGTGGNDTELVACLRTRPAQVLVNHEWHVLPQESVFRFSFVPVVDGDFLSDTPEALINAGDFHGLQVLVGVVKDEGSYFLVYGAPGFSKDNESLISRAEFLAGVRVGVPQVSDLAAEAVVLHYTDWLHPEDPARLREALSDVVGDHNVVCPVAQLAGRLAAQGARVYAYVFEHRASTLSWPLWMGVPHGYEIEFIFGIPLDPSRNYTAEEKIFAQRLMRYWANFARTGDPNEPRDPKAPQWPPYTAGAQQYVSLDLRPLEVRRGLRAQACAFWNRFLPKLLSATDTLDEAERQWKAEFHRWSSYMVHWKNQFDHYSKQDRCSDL

SMILES	IC50 [1]	Ki [1]	IC50 [2]	Ki [2]	IC50 [3]	Ki [3]	IC50 [4]	IC50 (Cannabinoid receptor 1)	IC50 [5]	Ki [5]	IC50 (Cytochrome P450 2E1)	Ki (Cytochrome P450 2E1)	IC50 (Acetylcholinesterase)	IC50 ([2]; read-out: IC50) [µM]	Ki ([2]; read-out: Ki) [µM]
CCOc1nc2cccc(C(=O)O)c2n1Cc1ccc(-c2ccccc2-c2nnn[nH]2)cc1	Not Active	Not Active	Not Active	Not Active	Not Active	Not Active	Not Active	Not Active	Not Active	Not Active	Not Active	Not Active	Not Active	–	–
O=C(O)CCCc1cccs1	Not Active	Not Active	Not Active	Not Active	Not Active	Not Active	Not Active	Not Active	Not Active	Not Active	Not Active	Not Active	Not Active	–	–
COc1ccccc1N	Not Active	Not Active	Not Active	Not Active	Not Active	Not Active	Not Active	Not Active	Not Active	Not Active	Not Active	Not Active	Not Active	–	–
O=C(c1ccccc1F)N1CCC(Cc2ccccc2)CC1	Not Active	Not Active	Not Active	Not Active	Not Active	Not Active	Not Active	Not Active	Not Active	Not Active	Not Active	Not Active	Not Active	–	–
Cc1c(O)cccc1C(=O)N[C@@H](CSc1ccccc1)[C@H](O)CN1C[C@H]2CCCC[C@H]2C[C@H]1C(=O)NC(C)(C)C	Not Active	Not Active	–	–	Not Active	Not Active	Not Active	Not Active	Not Active	Not Active	Not Active	Not Active	Not Active	9.84	6.32
CC(O)COC[C@H]1O[C@@H]2O[C@H]3[C@H](O)[C@@H](O)[C@@H](O[C@H]4[C@H](O)[C@@H](O)[C@@H](O[C@H]5[C@H](O)[C@@H](O)[C@@H](O[C@H]6[C@H](O)[C@@H](O)[C@@H](O[C@H]7[C@H](O)[C@@H](O)[C@@H](O[C@H]8[C@H](O)[C@@H](O)[C@@H](O[C@H]1[C@H](O)[C@H]2O)O[C@@H]8COCC(C)O)O[C@@H]7COCC(C)O)O[C@@H]6COCC(C)O)O[C@@H]5COCC(C)O)O[C@@H]4COCC(C)O)O[C@@H]3COCC(C)O (stereo partly drawn) [2-HYDROXYPROPYL-BETA-CYCLODEXTRIN]	Not Active	Not Active	Not Active	Not Active	Not Active	Not Active	Not Active	Not Active	Not Active	Not Active	Not Active	Not Active	Not Active	–	–
NC(=O)c1cccc(N)c1 [3-AMINOBENZAMIDE]	Not Active	Not Active	Not Active	Not Active	Not Active	Not Active	Not Active	Not Active	Not Active	Not Active	Not Active	Not Active	Not Active	–	–
C[C@H]1O[C@H](O[C@H]2[C@H](O)[C@@H](O)[C@@H](O[C@H]3[C@H](O)[C@@H](O)C(O)O[C@@H]3CO)O[C@@H]2CO)[C@H](O)[C@@H](O)[C@@H]1N[C@H]1C=C(CO)[C@@H](O)[C@H](O)[C@H]1O (stereo partly drawn) [ACARBOSE]	Not Active	Not Active	Not Active	Not Active	Not Active	Not Active	Not Active	Not Active	Not Active	Not Active	Not Active	Not Active	Not Active	–	–
CC[C@H]1[C@@H]2C[C@H]3[C@@H]4N(C)c5ccccc5[C@]45C[C@@H]([C@@H]2[C@H]5O)N3[C@@H]1O [AJMALINE]	Not Active	Not Active	Not Active	Not Active	Not Active	Not Active	Not Active	Not Active	Not Active	Not Active	Not Active	Not Active	Not Active	–	–
NC12CC3CC(CC(C3)C1)C2 [AMANTADINE]	Not Active	Not Active	Not Active	Not Active	Not Active	Not Active	Not Active	Not Active	Not Active	Not Active	–	–	Not Active	–	–
NCCCNCCSP(=O)(O)O [AMIFOSTINE]	Not Active	Not Active	Not Active	Not Active	Not Active	Not Active	Not Active	Not Active	Not Active	Not Active	Not Active	Not Active	Not Active	–	–
CN(C)CCC=C1c2ccccc2CCc2ccccc21 [AMITRIPTYLINE]	Not Active	Not Active	Not Active	Not Active	Not Active	Not Active	Not Active	Not Active	Not Active	Not Active	Not Active	Not Active	Not Active	–	–
CC(=O)Oc1ccccc1C(=O)O [ASPIRIN]	Not Active	Not Active	Not Active	Not Active	Not Active	Not Active	Not Active	Not Active	Not Active	Not Active	Not Active	Not Active	Not Active	–	–
CC(C)c1c(C(=O)Nc2ccccc2)c(-c2ccccc2)c(-c2ccc(F)cc2)n1CC[C@@H](O)C[C@@H](O)CC(=O)O [ATORVASTATIN]	Not Active	Not Active	Not Active	Not Active	Not Active	Not Active	Not Active	Not Active	Not Active	Not Active	Not Active	Not Active	Not Active	–	–
ClC(Cl)(Cl)Cl [CARBON TETRACHLORIDE]	Not Active	Not Active	Not Active	Not Active	Not Active	Not Active	Not Active	Not Active	Not Active	Not Active	–	–	Not Active	–	–
CC(=O)OCC(=O)[C@@]12OC(C)(C)O[C@@H]1C[C@H]1[C@@H]3C[C@H](F)C4=CC(=O)C=C[C@]4(C)[C@@]3(F)[C@@H](O)C[C@@]12C [FLUOCINONIDE]	Not Active	Not Active	Not Active	Not Active	Not Active	Not Active	Not Active	Not Active	Not Active	Not Active	–	–	Not Active	–	–
N[C@@H](Cn1ccc(=O)c(O)c1)C(=O)O [L-MIMOSINE]	Not Active	Not Active	Not Active	Not Active	Not Active	Not Active	Not Active	Not Active	Not Active	Not Active	–	–	Not Active	–	–
C[C@@H]1C/C=C/C=C/C=C/C=C/[C@H](O[C@@H]2O[C@H](C)[C@@H](O)[C@H](N)[C@@H]2O)C[C@@H]2O[C@](O)(C[C@@H](O)C[C@H]3O[C@@H]3/C=C/C(=O)O1)C[C@H](O)[C@H]2C(=O)O [NATAMYCIN]	Not Active	Not Active	Not Active	Not Active	Not Active	Not Active	Not Active	Not Active	Not Active	Not Active	–	–	Not Active	–	–
CN(C)C(=O)Oc1cccc([N+](C)(C)C)c1.[Br-] [NEOSTIGMINE BROMIDE]	Not Active	Not Active	Not Active	Not Active	Not Active	Not Active	Not Active	Not Active	Not Active	Not Active	Not Active	Not Active	–	–	–
CCN(CC)CCCC(C)Nc1c2ccc(Cl)cc2nc2ccc(OC)cc12 (stereo not drawn) [QUINACRINE]	Not Active	Not Active	Not Active	Not Active	Not Active	Not Active	Not Active	Not Active	Not Active	Not Active	Not Active	Not Active	–	–	–
